Patent publication US11254965B2 (priority 2015, dated 2022)
Where two headings read alike, the source gives them in different places.

Key:
CLso = type: cell-based, Candidatus Liberibacter solanacearum; conditions: 48 h treatment, CLso-potato hairy roots
Lso = type: cell-based, Candidatus Liberibacter solanacearum; conditions: 100 mg/L penicillin

CC/C=C\CC1C(=O)CCC1CC(=O)OC (stereo not shown) [methyl-JA, methyl jasmonate]
relative CLso titers versus DMSO control (CLso; 10 uM): suppressed CLso | relative CLso titers versus DMSO control (CLso; 10 uM, listed as methyl-jasmonate): decreased CLso titers

O=C(O)c1ccccc1O [salicylic acid]
relative CLso titers versus DMSO control (CLso; 100 uM): no significant effect

penicillin
Lso titer versus Lso colonized hairy roots not exposed (Lso; 2 days of exposure): significantly lower titer of Lso | Lso titer versus Lso colonized hairy roots not exposed (Lso; 7 days of exposure): significantly lower titer of Lso | relative CLso titers versus DMSO control (CLso; 100 ppm): significantly suppressed CLso titers | relative CLso titers versus DMSO control (CLso; 100 ppm, listed as Penicillin): decreased CLso titers
